Experimental data published in patent US20240124504A1, “AROMATIC HETEROCYCLIC COMPOUND, AND PHARMACEUTICAL COMPOSITION AND APPLICATION THEREOF” (GT APEIRON THERAPEUTICS LIMITED, priority 2020, published 2024).

Tests used:
CDK9/cyclinT1 complex = CDK9/cyclinT1 complex (Homo sapiens, UniProt P50750); assay: In-vitro enzymatic inhibitory activity testing, CDK9 inhibition assay (Caliper EZ Reader II); format: biochemical; conditions: CDK9/cyclinT1 8 nM, 180 min at 27° C.
Description: (§1) CDK12/CyclinK was diluted in an assay buffer (80 mM MES PH 6.5, 0.01% Tween 20, 50 ug/mL BSA, 10 mM MgCl2) to afford a corresponding enzyme solution with the 2.4 concentration. A compound was dissolved in dimethyl sulfoxide (DMSO) at a concentration of 10 mM. […] 2 ul of a test compound solution was mixed with 5 ul of the enzyme solution; after incubation for 10 min, 5 ul of the polypeptide substrate and ATP mixed solution was added; incubation was carried out for 180 min at 27° C.; and then, the reaction was terminated by adding 4 uL of EDTA with a concentration of 120 mM to each sample. […] A CDK9/cyclinT1 complex (8 nM) and a “5-FAM-CDK9tide” peptide substrate (2 IM, synthetic fluorophore-labeled peptide with the following sequence: 5-FAM-GSRTPMY-NH2, wherein 5-FAM was as defined above and NH2 represented C-terminal amide) were used for a CDK9 inhibition assay. […] A CDK2/cyclinE1 complex (0.5 nM) and “5-FAM-CDK7tide” (2 μM) as defined above were used for CDK2 inhibition assay.
(§2) A reaction mixture was analyzed on Caliper EZ Reader II by electrophoretic separation of a fluorogenic substrate and a phosphorylated product. Data were calculated by using GraphPad Prism version 6.0, and IC50 values were adjusted and obtained by using a nonlinear regression model of a dose response curve.

[1] = test system: human breast cancer cells HCC70; assay: Cell biological activity detection (CyQuant, 72 hours), HCC70; format: cell-based; conditions: Homo sapiens, HCC70, 72 h, incubation for 72 hours
Description: (§3) A2780 and HCC70 cells were subjected to trypsin digestion treatment, and cell suspensions were respectively transferred to 15 mL centrifuge tubes and centrifuged for 5 min at […]) rpm; supernatant was discarded, and resuspension was carried out in a fresh medium (RPMI 1640+10% FBS), after counting, cells were seeded into a 384-well plate at 2000/well (50 μL of 1640+10% FBS medium was added to the 2nd column and the 23rd column of the 384-well plate, and 50 μL of DPBS was added to the surrounding wells). Incubation was carried out overnight in an incubator (37° C., 5% CO2).
(§4) The compound was added to the well plates the next day. The compound had the highest concentration of 10 μM and was diluted at 1:4, and there were a total of 9 concentrations; and a positive compound Paclitaxel had the highest concentration of 1 μM and was diluted at 1:3, and there were a total of 9 concentrations. The DMSO content in each well was unified to 0.2%. The cell plates were centrifuged for 30 seconds at 800 rpm and placed in an incubator (37° C., 5% CO2) for incubation for 72 hours. On the fourth day, a Cyquant reagent (3×) was formulated according to kit instructions, and formulation was carried out for each 384-well plate according to the following proportions: DPBS 11.568 mL, CyQuant®? Direct nucleic acid stain 72 μL, and CyQuant® Direct background suppressor 360 μL. After uniform mixing, the reagent was placed at room temperature for further use. The cell plates were taken out and equilibrated for 30 min at room temperature, and 25 μL of the Cyquant reagent (3×) per well was dispensed into the cells of the 384-well plates by Multi-drop, and incubation was carried out for more than 60 minutes at 37° C. Acumen plate reading (Acumen setting: an excitation wavelength of 488 nm). IC50 results were analyzed by XLFIT5 from IDBS Company.

[2] = biological target: T1, CDK12 (aa686-1082)/cyclinK complex (Homo sapiens, UniProt Q9NYV4); assay: In-vitro enzymatic inhibitory activity testing, CDK12 inhibition assay (Caliper EZ Reader II); format: biochemical; conditions: CDK12/cyclinK 50 nM, 180 min at 27° C.; read-out: CDK12 IC50
T1 construct: A CDK12 (aa686-1082)/cyclinK complex (50 nM)
Description: An assay was carried out in a U-bottom 384-well plate (coming, 4512#), and the reaction temperature was 27° C. CDK7/CyclinH was diluted in an assay buffer (20 mM MES PH 6.75, 0.01% Tween 20, 50 ug/mL BSA, 6 mM MgCl2) to afford a corresponding enzyme solution with the 2.4× concentration. CDK2/CyclinE1 was diluted in an assay buffer (20 mM MES PH 6.75, 0.01% Tween 20, 50 ug/mL BSA, 6 mM MgCl2) to afford a corresponding enzyme solution with the 2.4× concentration. CDK9/CyclinT1 was diluted in an assay buffer (20 mM MES PH 6.75, 0.01% Tween 20, 50 ug/mL BSA, 10 mM MgCl2) to afford a corresponding enzyme solution with the 2.4× concentration. CDK12/CyclinK was diluted in an assay buffer (80 mM MES PH 6.5, 0.01% Tween 20, 50 ug/mL BSA, 10 mM MgCl2) to afford a corresponding enzyme solution with the 2.4 concentration. A compound was dissolved in dimethyl sulfoxide (DMSO) at a concentration of 10 mM. During use, the compound was diluted with DMSO into 10 concentration gradients from 25 nM to 500 uM, and respectively diluted by 8.3 folds in the assay buffer to afford a compound solution with a 6× concentration. A polypeptide substrate and ATP were diluted in the assay buffer to afford a polypeptide substrate and ATP mixed solution with a 2.4× concentration. 2 ul of a test compound solution was mixed with 5 ul of the enzyme solution; after incubation for 10 min, 5 ul of the polypeptide substrate and ATP mixed solution was added; incubation was carried out for 180 min at 27° C.; and then, the reaction was terminated by adding 4 uL of EDTA with a concentration of 120 mM to each sample. […]. Specifically, a CDK7/cyclinH/MAT1 complex (6 nM) and a “5-FAMCD K 7 tide” peptide substrate (2 μM, synthetic fluorophore-labeled peptide with the following sequence: 5-FAM-[…], wherein “5-FAM” refers to 5-carboxyfluorescein) were used for a CDK7 inhibition assay. A CDK9/cyclinT1 complex (8 nM) and a “5-FAM-CDK9tide” peptide substrate (2 IM, synthetic fluorophore-labeled peptide with the following sequence: 5-FAM-GSRTPMY-NH2, wherein 5-FAM was as defined above and NH2 represented C-terminal amide) were used for a CDK9 inhibition assay. A CDK12 (aa686-1082)/cyclinK complex (50 nM) and “5-FAM-CDK9tide” (2 μM) as defined above were used for a CDK12 inhibition assay. A CDK2/cyclinE1 complex (0.5 nM) and “5-FAM-CDK7tide” (2 μM) as defined above were used for CDK2 inhibition assay.
as §2

[3] = biological target: CDK7/cyclinH/MAT1 complex (Homo sapiens, UniProt P50613); assay: In-vitro enzymatic inhibitory activity testing, CDK7 inhibition assay (Caliper EZ Reader II); format: biochemical; conditions: CDK7/cyclinH/MAT1 6 nM, 180 min at 27° C.
Description: as §1, §2

CDK2/cyclinE1 complex = CDK2/cyclinE1 complex (Homo sapiens, UniProt P24941); assay: In-vitro enzymatic inhibitory activity testing, CDK2 inhibition assay (Caliper EZ Reader II); format: biochemical; conditions: CDK2/cyclinE1 0.5 nM, 180 min at 27° C.
Description: CDK12/CyclinK was diluted in an assay buffer (80 mM MES PH 6.5, 0.01% Tween 20, 50 ug/mL BSA, 10 mM MgCl2) to afford a corresponding enzyme solution with the 2.4 concentration. […] A CDK9/cyclinT1 complex (8 nM) and a “5-FAM-CDK9tide” peptide substrate (2 IM, synthetic fluorophore-labeled peptide with the following sequence: 5-FAM-GSRTPMY-NH2, wherein 5-FAM was as defined above and NH2 represented C-terminal amide) were used for a CDK9 inhibition assay. […] A CDK2/cyclinE1 complex (0.5 nM) and “5-FAM-CDK7tide” (2 μM) as defined above were used for CDK2 inhibition assay.
as §2

ovarian cancer A2780 = assay: Cell biological activity detection (CyQuant, 72 hours), A2780; format: cell-based, human; conditions: A2780 cells, incubation for 72 hours
Description: as §3, §4

CDK7/cyclinH/MAT1 complex, sequence (P50613 whole entry, species assumed): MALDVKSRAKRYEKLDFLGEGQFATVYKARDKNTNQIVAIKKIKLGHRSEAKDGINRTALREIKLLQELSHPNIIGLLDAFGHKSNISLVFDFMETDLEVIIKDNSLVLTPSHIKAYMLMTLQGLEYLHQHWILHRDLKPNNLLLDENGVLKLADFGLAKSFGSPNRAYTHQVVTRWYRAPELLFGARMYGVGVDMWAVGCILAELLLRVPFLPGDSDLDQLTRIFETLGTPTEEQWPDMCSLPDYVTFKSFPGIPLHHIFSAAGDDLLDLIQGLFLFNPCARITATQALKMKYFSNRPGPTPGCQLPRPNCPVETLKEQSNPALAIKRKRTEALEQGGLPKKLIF
CDK7/cyclinH/MAT1 complex, sequence (P51946 whole entry partner, species assumed): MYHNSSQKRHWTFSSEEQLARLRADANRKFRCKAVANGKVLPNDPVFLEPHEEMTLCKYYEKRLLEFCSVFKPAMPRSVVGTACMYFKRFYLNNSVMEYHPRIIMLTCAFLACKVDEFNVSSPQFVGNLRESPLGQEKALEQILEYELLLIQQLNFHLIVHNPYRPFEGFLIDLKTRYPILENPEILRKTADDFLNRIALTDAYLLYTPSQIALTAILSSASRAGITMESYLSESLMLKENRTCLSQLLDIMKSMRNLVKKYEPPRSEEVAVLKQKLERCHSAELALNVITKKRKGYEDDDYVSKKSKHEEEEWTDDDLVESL
CDK7/cyclinH/MAT1 complex, sequence (P51948 whole entry partner, species assumed): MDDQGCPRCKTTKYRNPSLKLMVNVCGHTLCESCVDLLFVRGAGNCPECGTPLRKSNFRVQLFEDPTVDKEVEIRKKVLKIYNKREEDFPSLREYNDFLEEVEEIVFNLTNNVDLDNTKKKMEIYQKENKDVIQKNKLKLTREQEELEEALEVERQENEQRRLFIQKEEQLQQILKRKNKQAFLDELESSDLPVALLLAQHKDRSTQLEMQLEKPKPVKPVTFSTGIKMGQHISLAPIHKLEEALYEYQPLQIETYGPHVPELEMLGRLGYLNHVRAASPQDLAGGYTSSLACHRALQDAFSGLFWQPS
T1 sequence (Q9NYV4 686-1082, species assumed): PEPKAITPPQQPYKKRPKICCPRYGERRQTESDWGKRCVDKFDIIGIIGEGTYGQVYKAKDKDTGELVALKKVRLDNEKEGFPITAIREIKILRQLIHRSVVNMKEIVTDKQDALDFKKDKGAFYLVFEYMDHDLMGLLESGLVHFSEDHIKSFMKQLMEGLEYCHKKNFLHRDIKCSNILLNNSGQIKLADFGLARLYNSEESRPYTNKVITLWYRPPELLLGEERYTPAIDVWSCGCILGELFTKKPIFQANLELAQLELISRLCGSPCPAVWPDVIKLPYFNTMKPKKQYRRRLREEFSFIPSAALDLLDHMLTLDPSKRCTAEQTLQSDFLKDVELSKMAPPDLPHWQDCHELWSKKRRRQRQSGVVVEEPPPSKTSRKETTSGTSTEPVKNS
T1 sequence (O75909 whole entry partner, species assumed, the tested form may be a part): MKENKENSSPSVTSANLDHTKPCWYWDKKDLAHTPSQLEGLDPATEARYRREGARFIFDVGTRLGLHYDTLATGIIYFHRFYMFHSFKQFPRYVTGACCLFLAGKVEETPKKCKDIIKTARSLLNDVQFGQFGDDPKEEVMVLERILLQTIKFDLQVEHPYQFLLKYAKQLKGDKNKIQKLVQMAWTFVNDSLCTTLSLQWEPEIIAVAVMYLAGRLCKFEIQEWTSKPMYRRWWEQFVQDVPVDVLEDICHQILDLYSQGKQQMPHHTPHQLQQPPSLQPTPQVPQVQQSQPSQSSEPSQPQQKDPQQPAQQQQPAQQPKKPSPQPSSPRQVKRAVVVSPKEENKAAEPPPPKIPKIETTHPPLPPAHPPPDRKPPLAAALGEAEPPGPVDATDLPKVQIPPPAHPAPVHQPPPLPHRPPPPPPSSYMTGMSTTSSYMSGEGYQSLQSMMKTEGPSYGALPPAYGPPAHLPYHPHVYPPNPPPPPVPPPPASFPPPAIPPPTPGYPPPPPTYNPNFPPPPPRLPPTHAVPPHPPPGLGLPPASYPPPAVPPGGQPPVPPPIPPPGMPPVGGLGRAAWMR
CDK9/cyclinT1 complex, sequence (P50750 whole entry, species assumed): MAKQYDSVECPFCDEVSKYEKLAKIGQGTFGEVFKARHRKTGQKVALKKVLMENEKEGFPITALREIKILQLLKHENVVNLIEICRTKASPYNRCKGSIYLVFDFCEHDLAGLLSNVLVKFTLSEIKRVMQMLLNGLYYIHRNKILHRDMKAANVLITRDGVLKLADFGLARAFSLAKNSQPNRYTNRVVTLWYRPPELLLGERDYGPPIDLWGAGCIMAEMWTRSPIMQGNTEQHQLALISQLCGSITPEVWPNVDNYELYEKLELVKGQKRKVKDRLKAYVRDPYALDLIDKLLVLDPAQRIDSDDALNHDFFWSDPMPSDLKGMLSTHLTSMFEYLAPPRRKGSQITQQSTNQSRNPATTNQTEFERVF
CDK9/cyclinT1 complex, sequence (O60563 whole entry partner, species assumed): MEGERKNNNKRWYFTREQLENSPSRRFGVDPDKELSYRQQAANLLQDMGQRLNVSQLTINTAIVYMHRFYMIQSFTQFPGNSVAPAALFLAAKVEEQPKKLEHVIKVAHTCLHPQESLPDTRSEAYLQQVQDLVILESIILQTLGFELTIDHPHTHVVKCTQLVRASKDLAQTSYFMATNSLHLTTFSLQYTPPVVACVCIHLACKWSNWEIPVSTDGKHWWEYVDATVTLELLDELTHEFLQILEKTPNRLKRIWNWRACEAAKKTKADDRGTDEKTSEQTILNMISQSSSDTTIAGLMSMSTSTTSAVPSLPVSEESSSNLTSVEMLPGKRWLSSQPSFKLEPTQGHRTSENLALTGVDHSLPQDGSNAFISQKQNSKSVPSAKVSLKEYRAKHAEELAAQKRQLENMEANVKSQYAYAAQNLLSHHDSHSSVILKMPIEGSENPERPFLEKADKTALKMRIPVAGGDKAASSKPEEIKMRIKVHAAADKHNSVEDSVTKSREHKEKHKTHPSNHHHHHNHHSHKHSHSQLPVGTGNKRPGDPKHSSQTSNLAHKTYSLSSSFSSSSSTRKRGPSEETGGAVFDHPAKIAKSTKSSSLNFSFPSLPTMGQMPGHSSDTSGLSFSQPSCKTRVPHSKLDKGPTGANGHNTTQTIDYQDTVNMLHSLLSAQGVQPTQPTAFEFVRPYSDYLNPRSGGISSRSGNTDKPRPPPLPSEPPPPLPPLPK

| Structure (SMILES) | IC50 (CDK9/cyclinT1 complex) [µM] | IC50 [1] [µM] | IC50 [2] [µM] | IC50 [3] [µM] | IC50 (CDK2/cyclinE1 complex) [µM] | IC50 (ovarian cancer A2780; Homo sapiens, A2780, 72 h) [µM] | IC50 (ovarian cancer A2780) [µM] |
| --- | --- | --- | --- | --- | --- | --- | --- |
| CP(C)(=O)c1cccc2c(-c3nc(NC(CO)CO)ncc3C(F)(F)F)c[nH]c12 [Compound 194, (3-(2-((1,3-dihydroxypropan-2-yl)amino)-5-(trifluoromethyl)pyrimidin-4-yl)-1H-indole-7-yl)dimethylphosphine oxide] | > 50 | 0.02 to 0.2 | > 50 | < 0.02 | 5 to 50 | < 0.02 | – |
| Cc1noc(C)c1-c1ccc2c(-c3nc(N[C@@H]4CCC45CNC5)ncc3C(F)(F)F)c[nH]c2n1 [Compound 36, (R)—N-(4-(6-(3,5-dimethylisoxazol-4-yl)-1H-pyrrolo[2,3-b]pyridin-3-yl)-5-(trifluoromethyl)pyrimidin-2-yl)-2-azaspiro[3.3]heptan-5-amine] | 5 to 50 | – | 0.2 to 5 | < 0.02 | 5 to 50 | < 0.02 | – |
| C[C@H]1C[C@H](Nc2ncc(C(F)(F)F)c(-c3c[nH]c4nc(N5CCOCC5)ccc34)n2)CCN1 [Compound 53, N-((2S,4R)-2-methylpiperidin-4-yl)-4-(6-morpholinyl-1H-pyrrolo[2,3-b]pyridin-3-yl)-5-(trifluoromethyl)pyrimidin-2-amine] | – | 0.2 to 5 | – | – | – | 0.2 to 5 | – |
| C[C@@H](CO)Nc1ncc(F)c(-c2c[nH]c3c(P(C)(C)=O)cccc23)n1 [Compound 157, (S)-(3-(5-fluoro-2-((1-hydroxypropan-2-yl)amino)pyrimidin-4-yl)-1H-indole-7-yl)dimethylphosphine oxide] | > 50 | – | > 50 | 0.2 to 5 | 0.2 to 5 | – | – |
| COc1ccc2c(-c3nc(N[C@@H](C)CO)ncc3C(F)(F)F)c[nH]c2c1P(C)(C)=O [Compound 106, (S)-(3-(2-((1-hydroxypropan-2-yl)amino)-5-(trifluoromethyl)pyrimidin-4-yl)-6-methoxy-1H-indole-7-yl)dimethylphosphine oxide] | 5 to 50 | – | 5 to 50 | 0.02 to 0.2 | 0.2 to 5 | – | – |
| CP(C)(=O)c1cccc2c(-c3nc(NC4CC(F)(F)CC4O)ncc3C(F)(F)F)c[nH]c12 (single isomer, unassigned) [Compound 191] | – | 0.02 to 0.2 | – | < 0.02 | 0.2 to 5 | < 0.02 | – |
| CC(C)(C)[C@H](CO)Nc1ncc(C(F)(F)F)c(-c2c[nH]c3c(P(C)(C)=O)cccc23)n1 [Compound 176] | – | < 0.02 | – | – | – | – | – |
| FC(F)(F)c1cnc(NC2CCCC3(CCCN3)C2)nc1-c1c[nH]c2nc(N3CCOCC3)ccc12 (stereo not drawn) [Compound 38, N-(4-(6-morpholinyl-1H-pyrrolo[2,3-b]pyridin-3-yl)-5-(trifluoromethyl)pyrimidin-2-yl)-1-azaspiro[4.5]decan-7-amine] | 5 to 50 | – | 5 to 50 | 0.02 to 0.2 | 5 to 50 | – | – |
| FC(F)(F)c1cnc(N[C@@H]2CCC[C@@H]3CNC[C@@H]32)nc1-c1c[nH]c2nc(N3CCOCC3)ccc12 [Compound 45, (3aR,4R,7aS)-N-(4-(6-morpholinyl-1H-pyrrolo[2,3-b]pyridin-3-yl)-5-(trifluoromethyl)pyrimidin-2-yl)octahydro-1H-isoindole-4-amine] | 5 to 50 | – | 5 to 50 | 0.02 to 0.2 | 5 to 50 | – | – |
| N#Cc1ccc2c(-c3nc(N[C@@H]4CCC45CNC5)ncc3C(F)(F)F)c[nH]c2n1 [Compound 61, (R)-3-(2-((2-azaspiro[3.3]heptan-5-yl)amino)-5-(trifluoromethyl)pyrimidin-4-yl)-1H-pyrrolo[2,3-b]pyridine-6-carbonitrile] | 5 to 50 | – | 5 to 50 | < 0.02 | 5 to 50 | 0.2 to 5 | – |
| CP(C)(=O)c1cccc2c(-c3nc(NCC(O)C4CCC4)ncc3C(F)(F)F)c[nH]c12 (single isomer, unassigned) [Compound 140] | > 50 | – | > 50 | 0.02 to 0.2 | 5 to 50 | – | – |
| C[C@@H](CO)Nc1nccc(-c2c[nH]c3c(P(C)(C)=O)cccc23)n1 [Compound 186] | > 50 | – | > 50 | 5 to 50 | > 50 | – | – |
| COc1cc(P(C)(C)=O)c2[nH]cc(-c3nc(N[C@@H](C)CO)ncc3C(F)(F)F)c2c1 [Compound 104] | > 50 | – | > 50 | 0.02 to 0.2 | 0.2 to 5 | – | – |
| FC(F)(F)c1cnc(NC2CCC3CNCC32)nc1-c1c[nH]c2nc(N3CCOCC3)ccc12 (single isomer, unassigned) [Compound 56] | > 50 | – | > 50 | 0.2 to 5 | > 50 | – | 5 to 50 |
| CP(C)(=O)c1cccc2c(-c3nc(NCC(O)C4CCC4)ncc3C(F)(F)F)c[nH]c12 (single isomer, unassigned) [Compound 139] | > 50 | – | > 50 | 0.02 to 0.2 | 5 to 50 | – | – |
